This note sets out measurements from patent US8921555B2, “Substituted-1,3,8-triazaspiro[4.5]decane-2,4-diones” (Merck Sharp & Dohme Corp., priority 2009, dated 2014).

Read-outs that look alike come from different tables or passages of the source.

For this assay, the target named is T1, HIF-PHD2 (Homo sapiens, UniProt Q9GZT9).
T1 construct: FLAG-tagged full length PHD2 expressed in and purified from baculovirus-infected Sf9 cells; FLAG; made in house; host or cells: baculovirus-infected Sf9 cells
Put plainly: Assay for HIF-PHD2 Catalytic Activity (PHD2 Binding Activity). Format: biochemical.

The mark [1] stands for this setting: read-out: PHD2 Binding Activity IC50.

T1 sequence (Q9GZT9 whole entry): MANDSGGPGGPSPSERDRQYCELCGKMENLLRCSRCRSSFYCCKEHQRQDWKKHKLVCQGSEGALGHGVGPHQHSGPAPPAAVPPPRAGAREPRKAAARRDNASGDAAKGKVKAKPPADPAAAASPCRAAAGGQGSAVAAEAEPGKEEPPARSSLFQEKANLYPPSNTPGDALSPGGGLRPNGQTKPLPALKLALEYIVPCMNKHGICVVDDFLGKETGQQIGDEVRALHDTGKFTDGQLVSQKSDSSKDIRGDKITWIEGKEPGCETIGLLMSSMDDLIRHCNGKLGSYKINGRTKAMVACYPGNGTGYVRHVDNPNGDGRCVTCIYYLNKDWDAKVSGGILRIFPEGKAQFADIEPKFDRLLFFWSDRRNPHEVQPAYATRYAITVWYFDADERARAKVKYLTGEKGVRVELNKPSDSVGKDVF

`Cc1cccnc1CN1CCC2(CC1)C(=O)N(c1ccc(-c3ccccc3)cc1)C(=O)N2c1ncc(O)cn1` [Compound 1-10, 3-biphenyl-4-yl-1-(5-hydroxypyrimidin-2-yl)-8-[(3-methylpyridin-2-yl)methyl]-1,3,8-triazaspiro[4.5]decane-2,4-dione] registered an IC50 of 0.5 to 20 nM.
Same read-out and setting: the result for `O=C1N(c2ccc(-c3ccccc3)cc2)C(=O)C2(CCN(Cc3ncccc3Br)CC2)N1c1nccc(O)n1` [Compound 1-31, 3-biphenyl-4-yl-8-[(3-bromopyridin-2-yl)methyl]-1-(4-hydroxypyrimidin-2-yl)-1,3,8-triazaspiro[4.5]decane-2,4-dione] reads > 50 nM; that for `Cc1cccnc1CN1CCC2(CC1)C(=O)N(c1ccc(-c3ccccc3)cc1)C(=O)N2c1ccncc1` [Compound 1-8, 3-biphenyl-4-yl-8-[(3-methylpyridin-2-yl)methyl]-1-pyridin-4-yl-1,3,8-triazaspiro[4.5]decane-2,4-dione], 20 to 50 nM; that for `CC(C)(C)OC(=O)CN1CCC2(CC1)C(=O)N(c1ccc(-c3ccccc3)cc1)C(=O)N2c1cnccn1` [Compound 2-2, tert-butyl (3-biphenyl-4-yl-2,4-dioxo-1-pyrazin-2-yl-1,3,8-triazaspiro[4.5]dec-8-yl)acetate], > 50 nM.
`Cc1cccnc1CN1CCC2(CC1)C(=O)N(c1ccc(-c3ccccc3)cc1)C(=O)N2C(=O)N[C@@H](CO)C(=O)O` [Compound 5-6, N-({3-biphenyl-4-yl-8-[(3-methylpyridin-2-yl)methyl]-2,4-dioxo-1,3,8-triazaspiro[4.5]dec-1-yl}carbonyl)-L-serine]: the IC50 under setting [1] was in the range of 0.5 to 20 nM.
As to `Cc1cccnc1CN1CCC2(CC1)C(=O)N(c1ccc(-c3ccccc3)cc1)C(=O)N2c1nccc(C(=O)O)n1` [Compound 1-59, 2-{3-biphenyl-4-yl-8-[(3-methylpyridin-2-yl)methyl]-2,4-dioxo-1,3,8-triazaspiro[4.5]dec-1-yl}pyrimidine-4-carboxylic acid], the IC50 lay in the range of 0.5 to 20 nM.
Same read-out and setting: the result for `O=C(O)Cn1ccnc1CN1CCC2(CC1)C(=O)N(c1ccc(-c3ccccc3)cc1)C(=O)N2c1nccc(O)n1` [Compound 1-23, (2-{[3-biphenyl-4-yl-1-(4-hydroxypyrimidin-2-yl)-2,4-dioxo-1,3,8-triazaspiro[4.5]dec-8-yl]methyl}-1H-imidazol-1-yl)acetic acid] reads 0.5 to 20 nM.
Consider `COc1cc(O)nc(N2C(=O)N(c3ccc(-c4ccccc4)cc3)C(=O)C23CCN(Cc2ncccc2C)CC3)n1` [Compound 1-56, 3-biphenyl-4-yl-1-(4-hydroxy-6-methoxypyrimidin-2-yl)-8-[(3-methylpyridin-2-yl)methyl]-1,3,8-triazaspiro[4.5]decane-2,4-dione], for which the IC50 lay in the range of 0.5 to 20 nM.
For the molecule `O=C(O)CN1CCC2(CC1)NC(=O)N(c1ccc(-c3ccccc3)cc1)C2=O` [Compound 4-1, (3-biphenyl-4-yl-2,4-dioxo-1,3,8-triazaspiro[4.5]dec-8-yl)acetic acid], the IC50 under setting [1] is > 50 nM.
For `Cc1cc(C(=O)O)ccc1-c1ccc(N2C(=O)N(CC(F)(F)F)C3(CCN(Cc4ncccc4C)CC3)C2=O)cn1` [Compound 11-3, 3-methyl-4-(5-{8-[(3-methylpyridin-2-yl)methyl]-2,4-dioxo-1-(2,2,2-trifluoroethyl)-1,3,8-triazaspiro[4.5]dec-3-yl}-pyridin-2-yl) benzoic acid], under setting [1], the concentration for half-maximal inhibition (IC50) lay within 0.5 to 20 nM.
`COc1ccnc(N2C(=O)N(c3ccc(-c4ccccc4)cc3)C(=O)C23CCN(Cc2nccn2CCC(=O)O)CC3)n1` [Compound 1-22, 3-(2-{[3-biphenyl-4-yl-1-(4-methoxypyrimidin-2-yl)-2,4-dioxo-1,3,8-triazaspiro[4.5]dec-8-yl]methyl}-1H-imidazol-1-yl)propanoic acid]: the IC50 was in the range of 0.5 to 20 nM.
The same measure, in the same setting: the result for `COc1cc(OC)nc(N2C(=O)N(c3ccc(-c4ccccc4)cc3)C(=O)C23CCN(Cc2ncccc2C)CC3)n1` [Compound 1-57, 3-biphenyl-4-yl-1-(4,6-dimethoxypyrimidin-2-yl)-8-[(3-methylpyridin-2-yl)methyl]-1,3,8-triazaspiro[4.5]decane-2,4-dione] reads 0.5 to 20 nM.
